Measured values published in patent US20250082633A1, “COMPOUNDS AND METHODS FOR MODULATING SPLICING” (REMIX THERAPEUTICS INC., priority 2021, published 2025).

Tests used:
[1] = system: HiBiT-tagged MYB protein in K562 cells; test: HiBit protein abundance assay, MYB; format: cell-based, human; details: K562 HiBiT-modified cells, 24 hours, luminescence
Experimental: (§1) Compounds described herein were used to screen for effects on quantitative protein abundance using a HiBit assay system (Promega). Quantitative protein abundance was determined by measuring the protein levels of HiBit-tagged protein targets expressed in cell culture via luminescence using the Nano-Glo HiBiT Lytic Detection System, which uses a split complementation assay format to reconstitute NanoBiT enzyme to generate a luminescent signal. A protein abundance assay was developed such that endogenous protein targets could be modified with the HiBiT peptide tag and their abundance could be assessed after compound treatment. Briefly, K562 cell lines containing a HiBiT-modification were treated with various compounds described herein (e.g., compounds of Formulas (I), (II), or (III)). After treatment for 24 hours, the protein abundance of a specific target was determined by measuring luminescence. • Promega Nano-Glo HiBiT Lytic Detection System (cat #N3030) • Corning 384-well TC-treated microplates (cat #3570) • Synthego Engineered Cells Knock-In Clones [table] Cells were maintained in IMDM with 10% FBS. Before the assay, cells were diluted with phenolphthalein-free growth media (IMDM+1% FBS media) and were seeded in a 384-well plate at a density of 10000 cells/well (for each cell line listed in Table 6). Each compound was prepared as a 10-point 3-fold serial dilution in DMSO with the top dose at a final concentration of 10 μM in the well. Unmodified K562 cells were added at the previously specified density with DMSO to serve as an assay baseline and positive control (PC) and DMSO only with the respective modified cell lines was added to the negative control (NC) columns. Final DMSO concentration was kept at or below 0.25%. Treated cell plates were placed in an incubator at 37° C. with 5% CO2 for 24 hours. After 24 hours, 25 μL of Complete HiBit Lytic reagent was added to each well at room temperature (e.g. one plate requiring 10 mL Lytic Buffer, 100 μL LgBiT Protein, 200 μL Lytic Substrate), shaken for 5 minutes at 600 RPM, then left to sit for 10 minutes for signal to stabilize before reading on a Spark Cyto plate reader (Tecan) with a 500 ms measurement time. To determine compound effects on protein abundance of each target in Table 6, the percent response for each respective cell line was calculated at each compound concentration as follows: For the normalized response at each concentration, a four-parameter logistical regression was fit to the data and the response was interpolated at the 50% value to determine a concentration for protein abundance at 50% (IC50) the untreated control.

Target C = test: HiBit protein abundance assay, Target C; format: cell-based; details: Homo sapiens; K562 HiBiT-modified cells, 24 hours, luminescence
Experimental: as §1, with “Clones” for “Clones [table]”

| Structure (SMILES) | IC50 [1] | IC50 (Target C) |
| --- | --- | --- |
| Cc1cn2nc(-c3cc(F)c4nn(C5CCN(CCO)C6(CC6)C5)cc4c3)cc(C)c2n1 (stereo not drawn) [Compound 180, 2-[7-[5-(2,8-dimethylimidazo[1,2-b]pyridazin-6-yl)-7-fluoro-indazol-2-yl]-4-azaspiro[2.5]octan-4-yl]ethanol] | 100 to 1000 nM | < 100 nM |
| Cc1nc2c(C)cc(-n3cc4cc(N5CCNCC5)cc(F)c4n3)cc2o1 [Compound 119, 6-(7-fluoro-5-piperazin-1-yl-indazol-2-yl)-2,4-dimethyl-1,3-benzoxazole] | 1000 to 10000 nM | > 10000 nM |
| Cc1cn2cc(-c3cc(F)c4nn(C5CCNCC5)cc4c3)cc(F)c2n1 [Compound 129, 7-fluoro-5-(8-fluoro-2-methylimidazo[1,2-a]pyridin-6-yl)-2-(piperidin-4-yl)-2H-indazole] | 100 to 1000 nM | < 100 nM |
| Cc1cn2nc(-n3cc4cc(C5CCNCC5)cc(F)c4n3)cc(C)c2n1 [Compound 120, 6-[7-fluoro-5-(4-piperidyl)indazol-2-yl]-2,8-dimethyl-imidazo[1,2-b]pyridazine] | 1000 to 10000 nM | > 10000 nM |
| Cc1cc(-n2cc3cc(N4CCNCC4)cc(F)c3n2)cc2cn(C)nc12 [Compound 117, 2-(2,7-dimethylindazol-5-yl)-7-fluoro-5-piperazin-1-yl-indazole] | 1000 to 10000 nM | > 10000 nM |
| Cn1cc2cc(-c3cc(F)c4nn(C5CCNCC5)cc4c3)cc(C#N)c2n1 [Compound 130, 5-[7-fluoro-2-(4-piperidyl)indazol-5-yl]-2-methyl-indazole-7-carbonitrile] | 100 to 1000 nM | < 100 nM |
| Cc1cn2nc(-c3cc(F)c4nn(C5CCNCC5)cc4c3)cc2c(C)n1 [Compound 124, 2-[7-fluoro-2-(4-piperidyl)indazol-5-yl]-4,6-dimethyl-pyrazolo[1,5-a]pyrazine] | 100 to 1000 nM | < 100 nM |
| Cc1cn2cc(-c3cc(F)c4nn(C5CCNCC5)cc4c3)nc(C)c2n1 [Compound 132, 6-[7-fluoro-2-(4-piperidyl)indazol-5-yl]-2,8-dimethyl-imidazo[1,2-a]pyrazine] | 1000 to 10000 nM | 100 to 1000 nM |
| Cc1cn2nc(-c3cc(F)c4nn(C5CCN(C6CCC6)CC5)cc4c3)cc(C)c2n1 [Compound 151, 6-[2-(1-cyclobutyl-4-piperidyl)-7-fluoro-indazol-5-yl]-2,8-dimethyl-imidazo [1,2-b] pyridazine] | < 100 nM | < 100 nM |
| Cn1cc2cc(-c3ccc4nn(C5CCNCC5)cc4n3)c(O)cc2n1 [Compound 110, 2-methyl-5-[2-(4-piperidyl)pyrazolo[4,3-b]pyridin-5-yl]indazol-6-ol] | 100 to 1000 nM | 100 to 1000 nM |
| Cc1cc(-n2cc3cc(N4CCNCC4)ccc3n2)cc2cn(C)nc12 [Compound 121, 2,7-dimethyl-5-(5-piperazin-1-ylindazol-2-yl)indazole] | > 10000 nM | > 10000 nM |

Further lines, results first:

| IC50 [1] | IC50 (Target C) | Structure (SMILES) |
| --- | --- | --- |
| 100 to 1000 nM | 100 to 1000 nM | COc1cc(-c2cc(C)c3nc(C)cn3n2)cc2cn(C3CCNCC3)nc12 [Compound 155, 6-(7-methoxy-2-(piperidin-4-yl)-2H-indazol-5-yl)-2,8-dimethylimidazo [1,2-b]pyridazine] |
| 100 to 1000 nM | < 100 nM | Cc1cn2nc(-c3cc(F)c4nn(C5CCN(C)C6(CC6)C5)cc4c3)cc(C)c2n1 (stereo not drawn) [Compound 174, 6-[7-fluoro-2-(4-methyl-4-azaspiro[2.5]octan-7-yl)indazol-5-yl]-2,8-dimethyl-imidazo[1,2-b]pyridazine] |
| 1000 to 10000 nM | 1000 to 10000 nM | Cc1nc2ccc(-c3cc(F)c4nn(C5CCNCC5)cc4c3)cc2s1 [Compound 134, 6-(7-fluoro-2-(piperidin-4-yl)-2H-indazol-5-yl)-2-methylbenzo[d]thiazole] |
| 100 to 1000 nM | < 100 nM | Cc1cn2nc(-c3cc(F)c4nn(C5CCN(CC6CC6)CC5)cc4c3)cc(C)c2n1 [Compound 149, 6-[2-[1-(cyclopropylmethyl)-4-piperidyl]-7-fluoro-indazol-5-yl]-2,8-dimethyl-imidazo[1,2-b]pyridazine] |
| 1000 to 10000 nM | 1000 to 10000 nM | Cc1ccc2cc(-c3cc(F)c4nn(C5CCNCC5)cc4c3)ccc2n1 [Compound 163, 6-[7-fluoro-2-(4-piperidyl)indazol-5-yl]-2-methyl-quinoline] |
| 1000 to 10000 nM | 1000 to 10000 nM | Cc1cn2nc(-c3cc4cn(C5CCNCC5)nc4c(OCc4ccccc4)n3)cc(C)c2n1 [Compound 153, 6-[7-benzyloxy-2-(4-piperidyl)pyrazolo [3,4-c]pyridin-5-yl]-2,8-dimethyl-imidazo[1,2-b]pyridazine] |
| 1000 to 10000 nM | 100 to 1000 nM | Cc1cn2nc(-c3cc(F)c4nn([C@H]5CCNC[C@@H]5F)cc4c3)cc(C)c2n1 [Compound 167, 6-(7-fluoro-2-((3S,4S)-3-fluoropiperidin-4-yl)-2H-indazol-5-yl)-2,8-dimethylimidazo[1,2-b]pyridazine] |
| 100 to 1000 nM | < 100 nM | Cc1nc2c(C)cc(-c3cc(F)c4nn(C5CCNCC5)cc4c3)cc2o1 [Compound 137, 6-[7-fluoro-2-(4-piperidyl)indazol-5-yl]-2,4-dimethyl-1,3-benzoxazole] |
| 1000 to 10000 nM | 1000 to 10000 nM | Fc1cc(-c2ccc3ncccc3c2)cc2cn(C3CCNCC3)nc12 [Compound 162, 6-[7-fluoro-2-(4-piperidyl)indazol-5-yl]quinoline] |
| 100 to 1000 nM | < 100 nM | CCN1CCC(n2cc3cc(-c4cc(C)c5nc(C)cn5n4)cc(F)c3n2)CC1 [Compound 146, 6-[2-(1-ethyl-4-piperidyl)-7-fluoro-indazol-5-yl]-2,8-dimethyl-imidazo[1,2-b]pyridazine] |
| 100 to 1000 nM | 100 to 1000 nM | Cc1cn2nc(-c3cc(F)c4nn(C5CCN(CCF)CC5)cc4c3)cc(C)c2n1 [Compound 152] |
| 100 to 1000 nM | 100 to 1000 nM | Cc1cn2nc(-c3ccc4nn(C5CCNCC5)cc4c3)cc(C)c2n1 [Compound 192, 2,8-dimethyl-6-[2-(4-piperidyl)indazol-5-yl]imidazo[1,2-b]pyridazine] |
| 100 to 1000 nM | 100 to 1000 nM | Cc1cn2nc(-c3cc4cn(C5CCNCC5)nc4c(O)n3)cc(C)c2n1 [Compound 139, 5-(2,8-dimethylimidazo[1,2-b]pyridazin-6-yl)-2-(4-piperidyl)-6H-pyrazolo[3,4-c]pyridin-7-one] |
| 100 to 1000 nM | 100 to 1000 nM | Cc1cn2nc(-c3ccc4nn(C5CCNCC5)cc4n3)cc(C)c2n1 [Compound 138, 2,8-dimethyl-6-[2-(4-piperidyl)pyrazolo[4,3-b]pyridin-5-yl]imidazo[1,2-b]pyridazine] |
| 100 to 1000 nM | < 100 nM | Cc1cn2nc(-c3cc(F)c4nn([C@@H]5CCNC6(CC6)C5)cc4c3)cc(C)c2n1 [Compound 173] |
| 1000 to 10000 nM | 1000 to 10000 nM | Fc1cc(-c2ccc3cnccc3c2)cc2cn(C3CCNCC3)nc12 [Compound 161, 6-[7-fluoro-2-(4-piperidyl)indazol-5-yl]isoquinoline] |
